What was measured:
[1] = biological target: T1, Serine/threonine-protein kinase Chk1 (Homo sapiens, UniProt O14757); experiment: Inhibition of recombinant CHK-mediated Cdc25C phosphorylation after 30 mins
T1 sequence (O14757 whole entry): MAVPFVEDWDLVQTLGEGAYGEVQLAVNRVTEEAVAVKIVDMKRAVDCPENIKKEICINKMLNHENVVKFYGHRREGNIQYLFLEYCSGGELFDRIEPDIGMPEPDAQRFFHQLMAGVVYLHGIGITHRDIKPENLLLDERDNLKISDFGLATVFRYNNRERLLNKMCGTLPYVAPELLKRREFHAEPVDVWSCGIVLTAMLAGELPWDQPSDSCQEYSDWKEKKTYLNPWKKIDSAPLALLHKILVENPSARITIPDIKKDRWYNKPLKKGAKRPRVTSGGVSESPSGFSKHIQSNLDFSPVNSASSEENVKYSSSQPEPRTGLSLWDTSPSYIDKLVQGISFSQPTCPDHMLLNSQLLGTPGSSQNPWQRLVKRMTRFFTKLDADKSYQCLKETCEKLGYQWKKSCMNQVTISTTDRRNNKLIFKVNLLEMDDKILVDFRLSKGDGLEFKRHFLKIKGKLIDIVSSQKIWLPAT

HeLa = experiment: cells; settings: Homo sapiens
Description: Antiproliferative activity against human HeLa cells by MTS assay

[2] = Antiproliferative activity against human H1299 cells by FACS assay; format: functional, cell-based; settings: NCI-H1299
[3] = Volume of distribution in mouse at 3 mg/kg, iv; format: ADME, organism-based; design: dose 3 mg/kg, route intravenous; settings: in vivo, read-out: Vdss
[4] = AUC in mouse at 10 mg/kg, ip; format: ADME, organism-based; design: dose 10 mg/kg, route intraperitoneal; settings: plasma
[5] = Cmax in mouse at 10 mg/kg, ip; format: ADME, organism-based; design: dose 10 mg/kg, route intraperitoneal; settings: in vivo
[6] = Oral bioavailability in mouse at 10 mg/kg; format: ADME, organism-based; settings: in vivo
[7] = Plasma clearance in mouse at 3 mg/kg, iv; format: ADME, organism-based; design: dose 3 mg/kg, route intravenous
[8] = Cmax in mouse at 10 mg/kg, po; format: ADME, organism-based; design: dose 10 mg/kg, route oral; settings: in vivo
[9] = Half life in mouse at 3 mg/kg, iv; format: ADME, organism-based; design: dose 3 mg/kg, route intravenous; settings: in vivo
[10] = (§1) AUC in mouse at 3 mg/kg, iv; format: ADME, organism-based, Plasma; design: dose 3 mg/kg, route intravenous; settings: plasma
Mus musculus = experiment: as §1; format: ADME, organism-based, Plasma; design: dose 3 mg/kg, route intravenous; settings: in vivo
[11] = AUC in mouse at 10 mg/kg, po; format: ADME, organism-based; design: dose 10 mg/kg, route oral; settings: plasma
[12] = Metabolic stability in rat liver microsomes assessed as half life at 1 uM; format: ADME, Microsome
[13] = Aqueous solubility at neutral pH; format: physicochemical; settings: buffer
[14] = Metabolic stability in rat liver microsomes assessed as compound remaining at 1 uM after 30 mins; format: ADME, Microsome; settings: read-out: Stability
[15] = Metabolic stability in rat liver microsome assessed as […] at 1 uM; format: ADME; settings: liver microsomes, read-out: Activity (converted)
[16] = Apparent permeability across human Caco-2 cells at 1 uM; format: ADME, cell-based

Structure (SMILES)	IC50 [1]	EC50 (HeLa)	EC50 [2]	further results
CC(=O)Nc1cccc2c1Cc1c(-c3ccc(-c4ccc(O)cc4)cc3)n[nH]c1-2	5.5 nM	–	–	–
OCc1cccc2c1Cc1c(-c3ccc(-c4ccc(O)cc4)cc3)n[nH]c1-2	7.8 nM	> 59000 nM	–	–
O=C(N[C@H]1CC[C@H](O)CC1)c1cccc2c1Cc1c(-c3ccc(-c4ccc(O)cc4)cc3)n[nH]c1-2	> 10000 nM	–	–	–
OCc1ccc2c(c1)-c1[nH]nc(-c3ccc(-c4ccc(O)cc4)cc3)c1C2	4.4 nM	> 59000 nM	> 10000 nM	–
O=C(NCCO)c1ccc2c(c1)-c1[nH]nc(-c3ccc(-c4ccc(O)cc4)cc3)c1C2	5 nM	–	–	–
CNC(=O)c1ccc2c(c1)-c1[nH]nc(-c3ccc(-c4ccc(O)cc4)cc3)c1C2	2.3 nM	–	–	–
O=C(c1ccc2c(c1)-c1[nH]nc(-c3ccc(-c4ccc(O)cc4)cc3)c1C2)N1CCOCC1	91 nM	–	–	–
COc1cc2c(cc1C(=O)N1CCOCC1)Cc1c(-c3ccc(-c4ccc(O)cc4)cc3)n[nH]c1-2	0.55 nM	–	–	–
COc1cc2c(cc1CNCCO)Cc1c(-c3ccc(-c4ccc(O)cc4)cc3)n[nH]c1-2	0.43 nM	–	–	–
COc1cc2c(cc1CNCCN1CCCC1)Cc1c(-c3ccc(-c4ccc(O)cc4)cc3)n[nH]c1-2	0.21 nM	910 nM	5100 nM	–
COc1cc2c(cc1C(=O)N[C@H]1CC[C@H](O)CC1)C(C)(C)c1c(-c3ccc(-c4ccc(O)cc4)cc3)n[nH]c1-2	18 nM	8600 nM	> 10000 nM	–
COc1cc2c(cc1C(=O)NCc1ccccn1)Cc1c(-c3ccc(-c4ccc(O)c(F)c4)cc3)n[nH]c1-2	27 nM	–	–	Vd [3]: 2.4 L/kg; AUC [4]: 3800 ng·h/mL; Cmax [5]: 2800 nM; bioavailability [6]: 0%; clearance [7]: 60 mL/min/kg; Cmax [8]: < 50 nM; half-life [9]: 27.6 min; AUC [10]: 1700 ng·h/mL
COc1cc2c(cc1C(=O)NCc1ccccn1)Cc1c(-c3ccc(-c4ccc(O)c(C#N)c4)cc3)n[nH]c1-2	9090 nM	–	–	–
COc1cc2c(cc1CN1CCN(C)CC1)Cc1c(-c3ccc(-c4ccc(O)c(F)c4)cc3)n[nH]c1-2	28 nM	–	–	Vd [3]: 9.2 L/kg; AUC [4]: 1600 ng·h/mL; Cmax [5]: 1300 nM; bioavailability [6]: 6%; Cmax [8]: 80 nM; half-life [9]: 36 min; AUC (Mus musculus): 690 ng·h/mL; AUC [11]: 130 ng·h/mL
COc1cc2c(cc1CN1CCN(C)CC1)Cc1c(-c3ccc(-c4ccc(O)c(C#N)c4)cc3)n[nH]c1-2	> 10000 nM	–	–	–
COc1cc2c(cc1CN1CCC(O)CC1)Cc1c(-c3ccc(-c4ccc(O)cc4)cc3)n[nH]c1-2	1.1 nM	–	–	–
O=C(NCc1ccccn1)c1ccc2c(c1)Cc1c(-c3ccc(-c4ccc(O)cc4)cc3)n[nH]c1-2	–	23000 nM	> 10000 nM	Vd [3]: 4.7 L/kg; AUC [4]: 4400 ng·h/mL; Cmax [5]: 2000 nM; bioavailability [6]: 4%; half-life at 1 µM [12]: 25 min; solubility [13]: < 0.03 µg/mL; Cmax [8]: 250 nM; remaining at 0.5 h, 1 µM [14]: 40%; half-life [9]: 36 min; k el at 1 µM [15]: 0.00049 s⁻¹; AUC (Mus musculus): 1200 ng·h/mL; Papp at 1 µM [16]: 13.3 ×10⁻⁶ cm/s; AUC [11]: 160 ng·h/mL
O=C(CNCc1ccncc1)Nc1ccc2c(c1)Cc1c(-c3ccc(-c4ccc(O)cc4)cc3)n[nH]c1-2	6.4 nM	–	–	–
O=C(CN[C@H]1CC[C@H](O)CC1)Nc1ccc2c(c1)Cc1c(-c3ccc(-c4ccc(O)cc4)cc3)n[nH]c1-2	1.2 nM	> 59000 nM	> 10000 nM	–

Structure (SMILES)	IC50 [1]	EC50 (HeLa)	EC50 [2]	further results
O=C(CNCCO)Nc1ccc2c(c1)Cc1c(-c3ccc(-c4ccc(O)cc4)cc3)n[nH]c1-2	0.74 nM	> 59000 nM	> 10000 nM	–
CC(C)(C)NCc1ccc2c(c1)-c1[nH]nc(-c3ccc(-c4ccc(O)cc4)cc3)c1C2	34 nM	–	–	–
OCCNCc1ccc2c(c1)-c1[nH]nc(-c3ccc(-c4ccc(O)cc4)cc3)c1C2	12 nM	–	–	–
CN(C)CCNCc1ccc2c(c1)-c1[nH]nc(-c3ccc(-c4ccc(O)cc4)cc3)c1C2	5.2 nM	> 59000 nM	> 10000 nM	–
COc1cc2c(cc1C(=O)N1CCC(O)CC1)Cc1c(-c3ccc(-c4ccc(O)cc4)cc3)n[nH]c1-2	0.24 nM	1400 nM	5200 nM	–
COc1cc2c(cc1C(=O)NCCN1CCCC1)Cc1c(-c3ccc(-c4ccc(O)cc4)cc3)n[nH]c1-2	0.83 nM	–	–	–
COc1cc2c(cc1CN[C@H]1CC[C@H](O)CC1)Cc1c(-c3ccc(-c4ccc(O)cc4)cc3)n[nH]c1-2	0.56 nM	620 nM	3100 nM	–
Oc1ccc(-c2ccc(-c3n[nH]c4c3Cc3cc(O)ccc3-4)cc2)cc1	4.4 nM	–	–	–
OCc1ccc2c(c1)Cc1c(-c3ccc(-c4ccc(O)cc4)cc3)n[nH]c1-2	7.7 nM	> 59000 nM	–	–
CCCCNCC(=O)Nc1ccc2c(c1)Cc1c(-c3ccc(-c4ccc(O)cc4)cc3)n[nH]c1-2	2.1 nM	1700 nM	> 10000 nM	–
CC(C)(C)CNCc1cccc2c1Cc1c(-c3ccc(-c4ccc(O)cc4)cc3)n[nH]c1-2	209 nM	–	–	–
Oc1ccc(-c2ccc(-c3[nH]nc4c3Cc3cccc(O)c3-4)cc2)cc1	671 nM	–	–	–
O=C(NCc1ccccc1)c1cccc2c1Cc1c(-c3ccc(-c4ccc(O)cc4)cc3)n[nH]c1-2	> 10000 nM	–	–	–
Oc1ccc(-c2ccc(-c3n[nH]c4c3Cc3ccc(CNCCN5CCCC5)cc3-4)cc2)cc1	7.1 nM	2800 nM	–	–
COc1cc2c(cc1CN1CCN(C)CC1)Cc1c(-c3ccc(-c4ccc(O)cc4)cc3)n[nH]c1-2	0.51 nM	–	–	–
Oc1ccc(-c2ccc(-c3n[nH]c4c3Cc3ccccc3-4)cc2)cc1	1370 nM	–	–	–
CN1CCN(Cc2ccc3c(c2)Cc2c(-c4ccc(-c5ccc(O)cc5)cc4)n[nH]c2-3)CC1	24 nM	1700 nM	> 10000 nM	Vd [3]: 3.4 L/kg; AUC [4]: 2700 ng·h/mL; Cmax [5]: 1100 nM; bioavailability [6]: 9%; solubility [13]: < 0.03 µg/mL; Cmax [8]: 90 nM; half-life [9]: 30 min; AUC (Mus musculus): 1500 ng·h/mL; AUC [11]: 450 ng·h/mL
COc1cc2c(cc1C(=O)N[C@H]1CC[C@H](O)CC1)Cc1c(-c3ccc(-c4ccc(O)cc4)cc3)n[nH]c1-2	0.24 nM	38000 nM	> 10000 nM	Vd [3]: 6 L/kg; AUC [4]: 4200 ng·h/mL; Cmax [5]: 1500 nM; bioavailability [6]: 0%; clearance [7]: 183 mL/min/kg; Cmax [8]: < 100 nM; half-life [9]: 23.4 min; AUC [10]: 570 ng·h/mL
COc1cc2c(cc1C(=O)N1CCN(C)CC1)Cc1c(-c3ccc(-c4ccc(O)cc4)cc3)n[nH]c1-2	2.3 nM	–	–	–
